Patent US9464077B2, “Nitrogen-containing aromatic heterocyclic compound” (Astellas Pharma Inc., priority 2012, dated 2016)
Blank lines part the entries; values can stand above or below the compound they belong to.

Legend:
human recombinant FGFR1 = human recombinant FGFR1 (Homo sapiens, UniProt P11362); assay: FGFR1 enzyme assay (LabChip EZ Reader)
Protocol: (§2) The compound was diluted with a solution of dimethyl sulfoxide (DMSO) (10-fold common ratio, 4 portions) before dilution with a reaction buffer (100 mM HEPES (pH7.5), 0.003% Brij-35, 0.004% Tween 20, 0.5 mM DTT, and 10 mM MgCl2) so that the final DMSO concentration was 2%. To 4 μL of the compound solution in a 384-well plate, 2 μL each of FGFR1 enzyme (2 or 3 ng/μL), FGFR2 enzyme (2 ng/μL), or FGFR3 enzyme (6 ng/μL) which were diluted with the reaction buffer was added. […] After the reaction was stopped, the reaction mixture was measured with a LabChip EZ Reader. The IC50 values were calculated by non-linear regression based on the inhibition rates obtained.

human recombinant FGFR3 = human recombinant FGFR3 (Homo sapiens, UniProt P22607); assay: FGFR3 enzyme assay (LabChip EZ Reader)
Protocol: as §2

[1] = test system: UM-UC-14 (FGFR3_S249C-positive cells, bladder cancer); assay: Antitumor test on UM-UC-14 subcutaneous xenograft; type: in vivo, nude mice; conditions: oral, once a day; for inhibition in vivo at 1 mg/kg/day / Antitumor Activity, % regression: 1 mg/kg/day; for Antitumor Activity, % regression: tumor volume at Day 11 vs Day 1
Protocol: 3×10^6 UM-UC-14 cells per 0.1 mL (PBS+matrigel, 1:1) were inoculated subcutaneously into the right flank of nude mice (CAnN, Cg-Foxn1nu/CrlCrlj (nu/nu), male, 4- to 5-week-old), and when their tumor size reached about 250 mm^3, drug administration was started (Day 1). The drug was administered once a day and the tumor size was measured with a caliper and the body weight was also measured every two or three days. The antitumor effect was finally determined based on the tumor volume (mm^3; minor axis (mm)×minor axis (mm)×major axis (mm)/2) at Day 11 (n=3-5). To the control group, 0.5% MC (methyl cellulose) was administered. […] “% regression” indicates what percentage of regression could be achieved compared with the tumor volume at Day 1. Here, the tumor volume at Day 1 means tumor volume immediately before drug administration.

FGFR3_S249C/NIH3T3 cells = assay: Growth assay of cells with forced expression of mutant FGFR3; type: cell-based; conditions: Mus musculus, NIH3T3, 120 h; 5 days after addition, CellTiter-Glo; read-out: IC50 (growth inhibition)
Protocol: FGFR3_S249C/NIH3T3 cells were added to a 96-well spheroid plate (U bottom) at a concentration of 3000 cells/well/90 μL, and the compound solution (10 μL) was added thereto on the next day (final DMSO concentration: 0.1%). The compound solution was prepared by serially diluting the compound with DMSO at a 3-fold common ratio (9 portions and DMSO only) from the maximum concentration of 10 mM and then diluted 100-fold with a culture medium (D-MEM, 10% FBS). 5 days after the addition of the compound, the growth inhibition caused by the compound was evaluated by Promega (G7573) CellTiter-Glo™ Luminescent Cell Viability Assay.

[2] = test system: FGFR3-TACC3_v3 (N-FLAG) fusion polypeptide; assay: In vitro kinase activity inhibition (HTRF KinEASE-TK); type: biochemical, human; conditions: 100 μM ATP
[3] = test system: FGFR3-TACC3_v1 (N-FLAG) fusion polypeptide; assay: as above; type: biochemical, human; conditions: 100 μM ATP
[4] = test system: FGFR3-BAIAP2L1-expressing NIH3T3 cells; assay: Anchorage-independent cell growth inhibition, spheroid plate; type: cell-based; conditions: Mus musculus, NIH3T3, 96 h, 4 days, read-out: growth inhibition rate FGFR3-BAIAP2L1-expressing NIH3T3 Cells; for inhibition at 0.001 µM: 1 nM; for inhibition at 0.01 µM: 10 nM; for inhibition at 0.1 µM: 100 nM
Protocol: (§1) In a 96-well spheroid plate (Sumilon Celltight Spheroid 96U; Sumitomo Bakelite), FGFR3-BAIAP2L1-expressing NIH3T3 cells were seeded at 1×10^3 cells per well in D-MEM medium containing 10% fetal bovine serum. A well supplemented with only medium was also prepared for a positive control. Culturing was performed overnight in the presence of 5% CO2 at 37° C. followed by addition of test compounds (final concentrations: 100 nM, 10 nM, and 1 nM). As a negative control, DMSO used as a solvent for the compounds was added at the same concentration (0.1%) as in the case of addition of the compounds. Then, culturing was performed in the presence of 5% CO2 at 37° C. for 4 days, and a cell counting reagent (CellTiter-Glo™ Luminescent Cell Viability Assay; Promega) was added and the resulting mixture was stirred for 20 minutes followed by measurement with a luminometer.

[5] = test system: bladder cancer patient-derived cell line RT4; assay: as above; type: cell-based; conditions: Homo sapiens, 96 h, 4 days, read-out: growth inhibition rate RT4; for inhibition at 0.001 µM: 1 nM; for inhibition at 0.01 µM: 10 nM; for inhibition at 0.1 µM: 100 nM
[6] = test system: FGFR3-TACC3_v4-expressing NIH3T3 cells; assay: as above; type: cell-based; conditions: Mus musculus, NIH3T3, 96 h, 4 days, read-out: growth inhibition rate v4; for inhibition at 0.001 µM: 1 nM; for inhibition at 0.01 µM: 10 nM; for inhibition at 0.1 µM: 100 nM
Source text: Measurement for anchorage-independent cell growth (colony method, etc.) is known to be a system for investigating the anticancer action (pharmacological effect) of compounds (Clinical Oncology, second edition, Cancer and Chemotherapy Publishers Inc.). As a method for measuring the non-adhesive growth of cells, there is the following method using a spheroid plate as referred to above in place of the colony method.
as §1, with “Bakelite), FGFR3-TACC3_v1-expressing NIH3T3 cells, FGFR3-TACC3_v2-expressing NIH3T3 cells, FGFR3-TACC3_v3-expressing NIH3T3 cells, and FGFR3-TACC3_v4-expressing” for “Bakelite), FGFR3-BAIAP2L1-expressing”, “were each” for “were”, “D-MEM media (Invitrogen)” for “D-MEM medium”, “serum. […]” for “serum.”

[7] = test system: FGFR3-TACC3_v2 (N-FLAG) fusion polypeptide; assay: In vitro kinase activity inhibition (HTRF KinEASE-TK); type: biochemical, human; conditions: 100 μM ATP
human recombinant FGFR2 = human recombinant FGFR2 (Homo sapiens, UniProt P21802); assay: FGFR2 enzyme assay (LabChip EZ Reader)
Protocol: as §2

[8] = test system: bladder cancer patient-derived cell line RT-112; assay: Anchorage-independent cell growth inhibition, spheroid plate; type: cell-based; conditions: Homo sapiens, RT-112, 96 h, 4 days, read-out: growth inhibition rate RT-112
[9] = Mus musculus, UMUC14, 264 h, tumor volume at Day 11

Sequence of human recombinant FGFR3 (P22607 23-806): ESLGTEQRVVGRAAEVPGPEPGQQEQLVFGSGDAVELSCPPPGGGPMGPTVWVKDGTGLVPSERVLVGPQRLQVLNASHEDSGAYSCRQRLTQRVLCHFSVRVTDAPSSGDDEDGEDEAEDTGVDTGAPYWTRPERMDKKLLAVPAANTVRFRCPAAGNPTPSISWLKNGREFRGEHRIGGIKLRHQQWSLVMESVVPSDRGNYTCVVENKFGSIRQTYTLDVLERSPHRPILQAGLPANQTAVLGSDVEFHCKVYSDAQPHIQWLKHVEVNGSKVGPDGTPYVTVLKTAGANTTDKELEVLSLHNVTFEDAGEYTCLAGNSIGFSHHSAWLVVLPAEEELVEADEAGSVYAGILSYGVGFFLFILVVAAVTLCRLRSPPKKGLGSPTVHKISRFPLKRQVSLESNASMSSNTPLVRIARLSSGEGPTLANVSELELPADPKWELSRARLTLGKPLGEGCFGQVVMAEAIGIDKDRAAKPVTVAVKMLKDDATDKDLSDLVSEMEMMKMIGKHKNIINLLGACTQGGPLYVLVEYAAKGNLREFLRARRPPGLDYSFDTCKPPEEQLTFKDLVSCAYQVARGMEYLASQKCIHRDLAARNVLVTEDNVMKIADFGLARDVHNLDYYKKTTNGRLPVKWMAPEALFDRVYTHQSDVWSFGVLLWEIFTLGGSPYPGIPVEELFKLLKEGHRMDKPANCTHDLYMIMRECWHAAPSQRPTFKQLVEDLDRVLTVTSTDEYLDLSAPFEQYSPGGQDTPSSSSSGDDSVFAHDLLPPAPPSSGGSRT
Sequence of human recombinant FGFR1 (P11362 22-822): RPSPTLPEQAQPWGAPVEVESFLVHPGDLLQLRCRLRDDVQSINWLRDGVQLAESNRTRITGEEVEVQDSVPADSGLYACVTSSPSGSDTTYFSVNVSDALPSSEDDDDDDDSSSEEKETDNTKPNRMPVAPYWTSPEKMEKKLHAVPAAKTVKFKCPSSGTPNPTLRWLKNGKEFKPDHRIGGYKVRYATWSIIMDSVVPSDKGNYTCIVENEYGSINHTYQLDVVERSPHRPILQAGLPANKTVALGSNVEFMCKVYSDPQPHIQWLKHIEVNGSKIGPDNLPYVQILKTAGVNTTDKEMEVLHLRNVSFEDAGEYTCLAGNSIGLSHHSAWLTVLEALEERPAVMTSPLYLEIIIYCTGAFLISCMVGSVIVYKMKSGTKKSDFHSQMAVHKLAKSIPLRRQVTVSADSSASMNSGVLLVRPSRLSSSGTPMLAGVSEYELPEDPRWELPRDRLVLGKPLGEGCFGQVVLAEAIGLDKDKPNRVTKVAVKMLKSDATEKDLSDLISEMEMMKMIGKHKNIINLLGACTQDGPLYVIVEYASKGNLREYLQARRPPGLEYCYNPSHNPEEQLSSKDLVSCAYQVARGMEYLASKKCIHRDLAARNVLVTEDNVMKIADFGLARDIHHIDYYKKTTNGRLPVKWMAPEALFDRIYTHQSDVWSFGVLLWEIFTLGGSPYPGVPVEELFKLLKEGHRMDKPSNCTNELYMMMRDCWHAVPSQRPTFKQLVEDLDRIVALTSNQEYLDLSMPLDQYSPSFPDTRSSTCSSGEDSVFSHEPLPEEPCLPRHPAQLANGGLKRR
Sequence of human recombinant FGFR2 (P21802 22-821): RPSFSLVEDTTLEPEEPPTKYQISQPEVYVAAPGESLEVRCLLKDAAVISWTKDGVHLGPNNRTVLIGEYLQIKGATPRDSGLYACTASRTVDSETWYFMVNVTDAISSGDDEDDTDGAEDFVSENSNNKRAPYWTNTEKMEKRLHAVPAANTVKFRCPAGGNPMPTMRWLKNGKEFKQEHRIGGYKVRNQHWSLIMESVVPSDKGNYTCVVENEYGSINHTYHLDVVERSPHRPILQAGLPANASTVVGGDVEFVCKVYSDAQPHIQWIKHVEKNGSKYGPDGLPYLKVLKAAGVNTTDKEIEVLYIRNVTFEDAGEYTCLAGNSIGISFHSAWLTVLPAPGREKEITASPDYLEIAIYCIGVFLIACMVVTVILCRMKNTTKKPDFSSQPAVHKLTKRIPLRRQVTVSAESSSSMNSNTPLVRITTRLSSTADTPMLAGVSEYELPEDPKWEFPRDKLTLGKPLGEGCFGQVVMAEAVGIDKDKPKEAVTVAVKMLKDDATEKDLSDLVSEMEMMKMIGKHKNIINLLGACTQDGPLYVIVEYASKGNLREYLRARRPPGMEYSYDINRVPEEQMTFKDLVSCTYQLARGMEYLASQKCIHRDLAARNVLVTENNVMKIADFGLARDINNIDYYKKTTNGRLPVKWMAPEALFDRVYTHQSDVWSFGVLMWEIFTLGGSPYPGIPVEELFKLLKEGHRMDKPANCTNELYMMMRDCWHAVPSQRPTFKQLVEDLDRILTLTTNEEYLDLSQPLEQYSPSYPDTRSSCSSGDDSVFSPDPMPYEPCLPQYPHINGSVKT

IC50 (human recombinant FGFR1): 1 nM
Structure (SMILES): COc1cc(Nc2ncc(OCc3c(F)c(OC)cc(OC)c3F)cn2)ccc1N1CCN(C)CC1 [Example 57]

IC50 (human recombinant FGFR1): 2 nM | IC50 (human recombinant FGFR3): 2 nM
Structure (SMILES): COc1cc(OC)c(Cl)c(COc2cnc(Nc3cnn(C4CCN(C)CC4)c3)nc2)c1Cl [Example 71]
inhibition in vivo at 1 mg/kg/day [1, 9]: 50% | IC50 (FGFR3_S249C/NIH3T3 cells): 10 nM

Structure (SMILES): COc1cc(OC)c(F)c(COc2cnc(Nc3cnn(C[C@@H](O)CO)c3)nc2)c1F [Example 116]
rate of inhibiting kinase activity v3 ([2]; 1 nM): 41% | rate of inhibiting kinase activity v3 ([2]; 100 nM): 96% | IC50 (human recombinant FGFR1): 1 nM | rate of inhibiting kinase activity v1 ([3]; 10 nM): 79% | rate of inhibiting kinase activity v1 ([3]; 100 nM): 95% | IC50 (human recombinant FGFR3): 2 nM | Antitumor Activity, % regression [1]: 54% | inhibition at 0.001 µM [4]: 15% | inhibition at 0.01 µM [4]: 74% | inhibition at 0.001 µM [5]: 8% | inhibition at 0.01 µM [5]: 39% | inhibition at 0.1 µM [5]: 63% | IC50 (FGFR3_S249C/NIH3T3 cells): 8 nM | inhibition at 0.001 µM [6]: 11% | inhibition at 0.01 µM [6]: 70% | rate of inhibiting kinase activity v2 ([7]; 1 nM): 22% | rate of inhibiting kinase activity v2 ([7]; 10 nM): 73% | rate of inhibiting kinase activity v2 ([7]; 100 nM): 95%

Structure (SMILES): COc1cc(OC)c(F)c(COc2cnc(Nc3ccc(N4CCN(C)CC4)cc3)nc2)c1F [Example 122]
rate of inhibiting kinase activity v3 ([2]; 1 nM): 45% | rate of inhibiting kinase activity v3 ([2]; 10 nM): 85% | rate of inhibiting kinase activity v3 ([2]; 100 nM): 97% | rate of inhibiting kinase activity v1 ([3]; 1 nM): 34% | rate of inhibiting kinase activity v1 ([3]; 10 nM): 80% | rate of inhibiting kinase activity v1 ([3]; 100 nM): 94% | IC50 (human recombinant FGFR3): 2 nM | Antitumor Activity, % regression [1]: 15% | inhibition at 0.001 µM [4]: 17% | inhibition at 0.01 µM [4]: 83% | inhibition at 0.1 µM [4]: 90% | IC50 (human recombinant FGFR2): 2 nM | inhibition at 0.001 µM [5]: 6% | inhibition at 0.01 µM [5]: 43% | inhibition at 0.1 µM [5]: 63% | IC50 (FGFR3_S249C/NIH3T3 cells): 7 nM | inhibition at 0.001 µM [6]: 19% | inhibition at 0.01 µM [6]: 82% | inhibition at 0.1 µM [6]: 89% | rate of inhibiting kinase activity v2 ([7]; 1 nM): 27% | rate of inhibiting kinase activity v2 ([7]; 10 nM): 80% | rate of inhibiting kinase activity v2 ([7]; 100 nM): 95%

IC50 (human recombinant FGFR1): 2 nM | IC50 (human recombinant FGFR3): 2 nM
Structure (SMILES): COc1cc(OC)c(F)c(CCc2cnc(Nc3ccc(N4CCC(N5CCN(C)CC5)CC4)c(F)c3)nc2)c1F [Example 33]
inhibition in vivo at 1 mg/kg/day [1, 9]: 70% | IC50 (FGFR3_S249C/NIH3T3 cells): 26 nM

IC50 (human recombinant FGFR1): 2 nM | IC50 (human recombinant FGFR3): 1 nM | IC50 (human recombinant FGFR2): 2 nM
Structure (SMILES): COc1cc(Nc2ncc(OCc3c(F)c(OC)cc(OC)c3F)cn2)ccc1N1CCN(C2CCN(C)CC2)CC1 [Example 84]
Antitumor Activity, % regression [1]: 34% | IC50 (FGFR3_S249C/NIH3T3 cells): 16 nM

IC50 (human recombinant FGFR1): 2 nM
Structure (SMILES): COc1cc(Nc2ncc(CCc3c(F)c(OC)cc(OC)c3F)cn2)ccc1N1CCN(C)CC1 [Ex 7]

IC50 (human recombinant FGFR3): 1 nM | IC50 (human recombinant FGFR2): 2 nM
Structure (SMILES): COc1cc(Nc2ncc(OCc3c(F)c(OC)cc(OC)c3F)cn2)ccc1N1C[C@@H](C)N[C@@H](C)C1 [Example 92]
inhibition in vivo at 1 mg/kg/day [1, 9]: 49% | IC50 (FGFR3_S249C/NIH3T3 cells): 7 nM

Structure (SMILES): COc1cc(OC)c(F)c(COc2cnc(Nc3cc(CN4CCN(C)CC4)n(C)n3)nc2)c1F [Example 248]
rate of inhibiting kinase activity v3 ([2]; 1 nM): 30% | rate of inhibiting kinase activity v3 ([2]; 10 nM): 55% | rate of inhibiting kinase activity v3 ([2]; 100 nM): 91% | IC50 (human recombinant FGFR1): 4 nM | rate of inhibiting kinase activity v1 ([3]; 1 nM): 7% | rate of inhibiting kinase activity v1 ([3]; 10 nM): 40% | rate of inhibiting kinase activity v1 ([3]; 100 nM): 86% | IC50 (human recombinant FGFR3): 5 nM | inhibition in vivo at 1 mg/kg/day [1, 9]: 95% | inhibition at 0.001 µM [4]: -3% | inhibition at 0.01 µM [4]: 19% | inhibition at 0.1 µM [4]: 82% | inhibition at 0.001 µM [5]: 3% | inhibition at 0.01 µM [5]: 10% | inhibition at 0.1 µM [5]: 43% | IC50 (FGFR3_S249C/NIH3T3 cells): 50 nM | inhibition at 0.001 µM [6]: -5% | inhibition at 0.01 µM [6]: 26% | inhibition at 0.1 µM [6]: 83% | rate of inhibiting kinase activity v2 ([7]; 1 nM): 6% | rate of inhibiting kinase activity v2 ([7]; 10 nM): 25% | rate of inhibiting kinase activity v2 ([7]; 100 nM): 78%

IC50 (human recombinant FGFR1): 1 nM | IC50 (human recombinant FGFR3): 2 nM
Structure (SMILES): COc1cc(OC)c(F)c(COc2cnc(Nc3cnn(C[C@H](O)CO)c3)nc2)c1F [Ex 11]
IC50 (FGFR3_S249C/NIH3T3 cells): 13 nM

IC50 (human recombinant FGFR1): 2 nM | IC50 (human recombinant FGFR3): 1 nM
Structure (SMILES): COc1cc(OC)c(F)c(COc2cnc(Nc3cnn(CCN4CCN(C)CC4)c3)nc2)c1F [Example 114]
Antitumor Activity, % regression [1]: 33% | IC50 (FGFR3_S249C/NIH3T3 cells): 7 nM

IC50 (human recombinant FGFR3): 2 nM
Structure (SMILES): COc1cc(Nc2ncc(OCc3c(F)c(OC)cc(OC)c3F)cn2)ccc1N1CCC2(CCNCC2)CC1 [Example 95]
inhibition in vivo at 3 mg/kg/day ([1]; Mus musculus, UMUC14, 264 h, 3 mg/kg/day, tumor volume at Day 11): 97% | IC50 (FGFR3_S249C/NIH3T3 cells): 57 nM

Structure (SMILES): COc1cc(Nc2ncc(OCc3c(F)c(OC)cc(OC)c3F)cn2)ccc1N1CCC(N2CCN(C)CC2)CC1 [Example 56]
IC50 (human recombinant FGFR1): 2 nM | IC50 (human recombinant FGFR2): 2 nM | inhibition at 0.001 µM [5]: 5% | inhibition at 0.01 µM [5]: 42% | inhibition at 0.1 µM [5]: 64% | inhibition at 0.001 µM ([8]; 1 nM): 29% | inhibition at 0.01 µM ([8]; 10 nM): 83% | inhibition at 0.1 µM ([8]; 100 nM): 90%

IC50 (human recombinant FGFR1): 2 nM | IC50 (human recombinant FGFR3): 2 nM
Structure (SMILES): COc1cc(OC)c(F)c(COc2cnc(Nc3cnn(CC(=O)N4CC(O)C4)c3)nc2)c1F [Example 115]
inhibition in vivo at 1 mg/kg/day [1, 9]: 70% | IC50 (FGFR3_S249C/NIH3T3 cells): 36 nM

IC50 (human recombinant FGFR3): 2 nM | IC50 (human recombinant FGFR2): 2 nM
Structure (SMILES): COc1cc(OC)c(Cl)c(COc2cnc(Nc3cnn(C4CCNCC4)c3)nc2)c1Cl [Example 72]
inhibition in vivo at 1 mg/kg/day [1, 9]: 30% | IC50 (FGFR3_S249C/NIH3T3 cells): 24 nM
